Experimental findings from US7115639B2, “Pyrrolidine oxadiazole- and thiadiazole oxime derivatives being oxytocin receptor antagonists” (Applied Research Systems ARS Holding N.V., priority 2001, dated 2006) are described below.

One series concerns the target T1, hOT receptor (Homo sapiens, UniProt P30559).
T1 construct: expressed in transfected cells; host or cells: HEK293EBNA
T1 sequence (P30559 1-389): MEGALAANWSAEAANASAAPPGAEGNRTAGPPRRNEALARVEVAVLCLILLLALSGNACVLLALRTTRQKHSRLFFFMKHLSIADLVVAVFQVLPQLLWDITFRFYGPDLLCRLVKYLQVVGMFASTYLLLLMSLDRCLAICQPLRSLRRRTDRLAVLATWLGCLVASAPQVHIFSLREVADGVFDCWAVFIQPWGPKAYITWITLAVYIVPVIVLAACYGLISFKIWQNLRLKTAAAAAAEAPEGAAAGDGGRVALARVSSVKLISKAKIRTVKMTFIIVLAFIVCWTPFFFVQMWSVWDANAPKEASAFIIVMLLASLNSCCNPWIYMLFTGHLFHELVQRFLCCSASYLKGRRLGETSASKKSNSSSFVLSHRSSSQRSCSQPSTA
Nature of the series: In vitro competition binding assay with scintillating proximity assay. As to conditions: [125I]-OVTA competition; membranes from HEK293EBNA cells expressing the hOT receptor; read-out: Binding affinity human OT-R IC50. As to the method: a) In Vitro Competition Binding Assay with Scintillating Proximity Assay (Pharmaceutical Manufacturing International, 1992, p. 49–53 by Cook, N. D. et al)
This assays allows to determine the affinity of the test compounds for the OT receptor. Membranes from HEK293EBNA cells expressing the hOT receptor were resuspended in buffer containing 50 mM Tris-HCl, pH 7.4, 5 mM MgCl2 and 0.1% BSA (w/v). The membranes (2–4 μg) were mixed with 0.1 mg wheat-germ aglutinin (WGA) SPA bead (type A) and 0.2 nM of the radiolabel [^125I]-OVTA (OVTA being Ornithin Vasoactive and is an analogue of OT for competition binding experiments). Non-specific binding was determined in the presence of 1 μM Oxytocin. The total assay volume was 100 μl. The plates (Corning® NBS plate) were incubated at room temperature for 30 min and counted on a Mibrobeta plate counter. The tests compounds were used in concentrations of 30 μM, 10 μM, 1 μM, 300 nM, 100 nM, 10 nM, 1 nM, 100 pM, 10 pM. The competition binding data were analysed using the iterative, non-linear, curve-fitting program, “Prism”.
The binding affinities to the oxytocin receptor of the pyrrolidine derivatives claimed in the formula I were assessed using the above described in vitro biological assay. The values refer to the binding affinity (IC50; μM) of the example compounds according to formula I to the Oxytocin receptor.

In another series the target is T2, hOT-R (Homo sapiens, UniProt P30559).
T2 construct: expressed in transfected cells; host or cells: HEK (Human Embryonic Kidney) cells
T2 sequence (P30559 1-389): T1 sequence (P30559 1-389)
Put plainly: Functional assay No. 1: inhibition of Ca2+-mobilization by FLIPR. Type of series: cell-based. As to conditions: HEK cells, OT 40 nM. The source says:
b) Functional Assay No. 1: Inhibition of Ca^2+-mobilization by FLIPR (Fluorescent Imaging Plate Reader)
FLIPR is a machine for fluorescence imaging using a laser that is capable of illuminating a 96-well plate and a means of simultaneously reading each well thus enabling rapid measurements on a large number of samples.
This assay intends to show the inhibition of the OT/OT-R mediated calcium mobilisation—being necessary to cause uterine contractions—by using test compounds of formula (I).
Preparing the plates: FLIPR-plates were pre-coated with PLL (Poly-L-Lysine) 10 μg/ml+0.1% gelatine to attach the HEK (Human Embryonic Kidney) cells for 30 min up to 2 days at 37° C. The cells were plated out into 96-well plates (60000 cells/well).
Labelling with fluo-4: 50 μg fluo-4 (fluorescent marker) were dissolved in 20 μl pluronic acid (20% in DMSO). The dissolved fluo-4 was then diluted in 10 ml DMEM (Dubecco's Minimal Essential Medium-F12 medium without FCS (Fetal Calf Serum). The medium was removed from the plates, followed by one wash with DMEM-F12 medium. Now, 100 μl of the DMEM-F12 medium containing fluo-4 were added and the cells incubated for 1–1.5 h (CHO-cells), and 1.5–2 h (HEK-cells). The cells now contain the fluorescent marker.
Buffer: 145 mM NaCl, 5 mM KCl, 1 mM MgCl2, 10 mM Hepes, 10 mM Glucose, EGTA (Ethylene-bis oxyethylene nitrilo tetraacetic acid). Adjust to pH 7.4.
Performance of the assay: A minimum of 80 μl/well of antagonists (5×) in the above buffer (1×) were prepared (96-well plates). The antagonists were added to the well-plates at different concentrations (30 μM, 10 μM, 1 μM, 300 nM, 100 nM, 10 nM, 1 nM, 100 pM, 10 pM).
OT is added at a concentration of 40 nM.
The fluorescent market being sensitive to the amount of Ca^2+ mobilized within the cell may be quantified by the FLIPR machine.
The activities of the pyrrolidine derivatives according to formula I were assessed using the above described in vitro biological assay. The values refer to the capacity of the example compounds according to formula I to effectively antagonize oxytocin-induced intracellular Ca^2+-mobilization mediated by the Oxytocin receptor.

Series [1] has as its system oxytocin-induced uterine contractions in the rat. Nature of the series: In vivo model for inhibition of uterine contractions.
Series [2] shares this test system. Described as above. How it is done: d) In Vivo Model for Inhibition of Uterine Contractions
The assay intends to show the biological effect of tested compounds in an in vivo model of preterm labor, premature birth.
Non-pregnant Charles River CD(SD) BR female rats (9–10 weeks old, 200–250 g) were treated at 18 and 24 hours before the experiment with 250 μg/kg, i.p. diethylstilbestrol (DES). For the assay, the animal was anaesthetised by urethane (1.75 g/kg, i.p.) and placed on an homeothermic operating table. The trachea was isolated and cannulated with a suitable polyethylene (PE) tubing. A midline incision at the hypogastrium level was made and one uterine horn exposed, its cephalic end cannulated with a PE240 tubing and, after filling the internal cavity with 0.2 ml of sterile physiological saline, connected to a “Gemini” amplifying/recording system via a P231D Gould Statham pressure transducer, in, order to measure said pressure. For the i.v. route of administration of the test compounds, one jugular vein was isolated and cannulated with a PE60 tubing connected to a butterfly needle to allow the administration by a dispensing syringe. In the case of intraduodenal administration of the test compounds, the duodenum was isolated and similarly cannulated through a small incision in its wall. One carotid artery was also isolated and cannulated with PE60 catheter and connected to a suitable syringe for blood sample collection (see below). After a stabilization period, the same dose of oxytocin was repeatedly injected intravenously at 30-min intervals. […] Further injections of the same dose of oxytocin were then made for a suitable time after treatment to assess inhibitory effects of the compounds under study. The contractile response of the uterus to oxytocin was quantified by measuring the intrauterine pressure and the number of contractions.
A total of six animals is forming one group which is treated with a given test compound at a given concentration (see above).
The effect of the test compounds were evaluated by comparing pre- and post-treatment pressure values. In addition, at 2, 30, 90 and 210 minutes after test compound administration, a 0.5-ml blood sample was withdrawn from the cannulated carotid artery of each experimental animal. Plasma was obtained by standard laboratory procedure and the resulting samples were stored at −20° C.
The activities of the pyrrolidine derivatives claimed in the formula I were assessed using the above described in vivo biological assay. The values refer to the capacity of the example compound according to formula I to effectively antagonize oxytocin-induced uterine contractions in the rat.
The source holds these as a separate data set.

What is called IC50 is the concentration at which inhibition is half-maximal. On to `CON=C1C[C@@H](c2nc(CC(=O)N3CCCC3)no2)N(C(=O)c2ccc(-c3ccccc3)cc2)C1` [(3EZ,5S)-1-([1,1′-biphenyl]-4-ylcarbonyl)-5-{3-[2-oxo-2-(1-pyrrolidinyl)ethyl]-1,2,4-oxadiazol-5-yl}-3-pyrrolidinone O-methyloxime], for which the IC50 on hOT receptor was found to be 7 nM.
Consider `CCC(O)c1noc([C@@H]2CC(=NOC)CN2C(=O)c2ccc(-c3ccccc3)cc2)n1` (mixture of isomers) [(3EZ,5S)-1-([1,1′-biphenyl]-4-ylcarbonyl)-5-{3-[(1RS)-1-hydroxypropyl]-1,2,4-oxadiazol-5-yl}-3-pyrrolidinone O-methyloxime], for which the IC50 at hOT receptor was 6 nM.
With `CON=C1C[C@@H](c2nc(CCO)no2)N(C(=O)c2ccc(-c3ccccc3)cc2)C1` [(3EZ,5S)-1-([1,1′-biphenyl]-4-ylcarbonyl)-5-[3-(2-hydroxyethyl)-1,2,4-oxadiazol-5-yl]-3-pyrrolidinone O-methyloxime], on hOT receptor, the IC50 is 11 nM.
`CON=C1C[C@@H](c2nc(C)no2)N(C(=O)c2ccc(-c3ccccc3Cl)cc2)C1` [(3EZ,5S)-1-[(2′-chloro[1,1′-biphenyl]-4-yl)carbonyl]-5-(3-methyl-1,2,4-oxadiazol-5-yl)-3-pyrrolidinone O-methyloxime] registered an IC50 at hOT-R of 1 nM.
For the molecule `CON=C1C[C@@H](c2noc(CNC(C)=O)n2)N(C(=O)c2ccc(-c3ccccc3)cc2)C1` [N-({3-[(2S,4EZ)-1-([1,1′-biphenyl]-4-ylcarbonyl)-4-(methoxyimino)pyrrolidinyl]-1,2,4-oxadiazol-5-yl}methyl)acetamide], the 50% inhibitory concentration (IC50) on hOT receptor is 3 nM.
For the molecule `CON=C1C[C@@H](c2noc(C3CCN(C(C)=O)CC3)n2)N(C(=O)c2ccc(-c3ccccc3)cc2)C1` [(3EZ,5S)-5-[5-(1-acetyl-4-piperidinyl)-1,2,4-oxadiazol-3-yl]-1-([1,1′-biphenyl]-4-ylcarbonyl)-3-pyrrolidinone O-methyloxime], the IC50 on hOT receptor was determined as 2 nM.
Consider `CON=C1C[C@@H](c2nnco2)N(C(=O)c2ccc(-c3ccccc3)cc2)C1` [(3EZ,5S)-1-([1,1′-biphenyl]-4-ylcarbonyl)-5-(1,3,4-oxadiazol-2-yl)-3-pyrrolidinone O-methyloxime], for which the values for the IC50 against hOT-R and on hOT receptor were 220 nM and 211 nM, respectively.
As to `CON=C1C[C@@H](c2nc(C)no2)N(C(=O)c2ccc(-c3ccccc3C)cc2)C1` [(3EZ,5S)-1-[(2′-methyl[1,1′-biphenyl]-4-yl)carbonyl]-5-(3-methyl-1,2,4-oxadiazol-5-yl)-3-pyrrolidinone O-methyloxime], the IC50 at hOT-R turned out to be 12 nM; at hOT receptor, 21 nM.
For the molecule `CO/N=C1\C[C@@H](c2nc(C)no2)N(C(=O)c2ccc(-c3ccccc3C)cc2)C1` [(3E,5S)-1-[(2′-methyl[1,1′-biphenyl]-4-yl)carbonyl]-5-(3-methyl-1,2,4-oxadiazol-5-yl)-3-pyrrolidinone O-methyloxime], the IC50 at hOT receptor was 23 nM.
As usually defined, the melting point is the temperature of the solid-liquid transition. For the molecule `CO/N=C1\C[C@@H](c2nc(CCO)no2)N(C(=O)c2ccc(-c3ccccc3)cc2)C1` [Example 9 (3E), (3E,5S)-1-([1,1′-biphenyl]-4-ylcarbonyl)-5-[3-(2-hydroxyethyl)-1,2,4-oxadiazol-5-yl]-3-pyrrolidinone O-methyloxime], the melting point amounted to 140.5 °C.
Consider `CON=C1C[C@@H](c2nc(C)no2)N(C(=O)c2ccc(-c3ccccc3)cc2)C1` [(3EZ,5S)-1-([1,1′-biphenyl]-4-ylcarbonyl)-5-(3-methyl-1,2,4-oxadiazol-5-yl)-3-pyrrolidinone O-methyloxime], for which the IC50 on hOT-R stood at 4 nM; at hOT receptor, 88 nM.
In the case of `CO/N=C1/C[C@@H](c2noc(CN(C)C)n2)N(C(=O)c2ccc(-c3ccccc3)cc2)C1` [(3Z,5S)-1-([1,1′-biphenyl]-4-ylcarbonyl)-5-{5-[(dimethylamino)methyl]-1,2,4-oxadiazol-3-yl}-3-pyrrolidinone O-methyloxime], the “% Reduction of Uterine Contraction” value in series [1] (oral, NP3S, 1 mg/kg) was −11.1 ± 1.3%; in series [1] (oral, NP3S, 3 mg/kg), −42.1 ± 2.9%; in series [2] (oral, NP3S, 10 mg/kg), −49.5 ± 6.1%; in series [2] (oral, NP3S, 30 mg/kg), −74.4 ± 4.2%.
As to `CO/N=C1/C[C@@H](c2nc(C)no2)N(C(=O)c2ccc(-c3ccccc3C)cc2)C1` [(3Z,5S)-1-[(2′-methyl[1,1′-biphenyl]-4-yl)carbonyl]-5-(3-methyl-1,2,4-oxadiazol-5-yl)-3-pyrrolidinone O-methyloxime], the values for the IC50 on hOT-R and on hOT receptor were 4 nM and 9 nM, respectively. The “% Reduction of Uterine Contraction” value in series [1] (Intravenous, NP3S 5 ml/kg infusion, 3 mg/kg) is recorded as −58.0 ±5.9%; in series [1] (Intravenous, NP3S, 7.5 ml/kg infusion, 30 mg/kg), −80.3 ± 5.1%; in series [2] (Intravenous, NP3S 5 ml/kg infusion, 0.3 mg/kg), −21.5 ± 7.3%; in series [2] (Intravenous, NP3S 5 ml/kg infusion, 1 mg/kg), −44.6 ± 7.1%; in series [2] (Intravenous, NP3S 5 ml/kg infusion, 10 mg/kg), −67.2 ± 10.1%.
